According to the supplement of paper PMC10307832:

Legend:
Assay in all cases: relative viability (nuclei count vs DMSO), 5 days (fraction); higher = more cells survive
Masitinib = compound: Cc1ccc(NC(=O)c2ccc(CN3CCN(C)CC3)cc2)cc1Nc1nc(-c2cccnc2)cs1 [Masitinib]
Method in brief: (§1)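 Five library-drug doses spaced by √10 were pinned onto vehicle-anchored 1536-well plates of lung cancer cell lines that had been kept overnight at 37 °C. Cells went 5 days without medium change, then were fixed, permeabilised and Hoechst-stained together, imaged at 4× and counted by MetaXpress. Viability is the ratio of treated-well to vehicle-well nuclei, taken as a median over plates. Plates required control CV below 25% and at least one doubling.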

[1] = compound: CC1=CC(=CC=C1)NC2=NC(=CS2)C3=CC=NC=C3
Method in brief: as §1

Masitinib + Pemetrexed = compound: Cc1ccc(NC(=O)c2ccc(CN3CCN(C)CC3)cc2)cc1Nc1nc(-c2cccnc2)cs1 [Masitinib] + Nc1nc2[nH]cc(CCc3ccc(C(=O)N[C@@H](CCC(=O)O)C(=O)O)cc3)c2c(=O)[nH]1 [Pemetrexed] (partner 0.2 µM)
Method in brief: (§2)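 For relative viability, nuclei counts in treated wells were divided by those in vehicle wells. Lung cancer cell lines had been pin-tool dosed in 1536-well plates the day after seeding and cultured for 5 days, then fixed and stained in one step (final 0.05% Triton X-100, 1% formaldehyde, 1 ug/ml Hoechst) and imaged at 4×. Doses were one drug alone or a fixed anchor-drug dose plus five library-drug doses (not always all listed) in √10 steps, and values are duplicate-plate medians.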

[2] = compound: CC1=CC(=CC=C1)NC2=NC(=CS2)C3=CC=NC=C3 + COc1cccc2cc(-c3nc([C@H]4CC[C@H](C(=O)O)CC4)n4ncnc(N)c34)[nH]c12 [OSI-027] (partner 0.5 µM)
Method in brief: as §2

| Cell Line | relative viability (Masitinib; 0.01 µM) | relative viability (Masitinib; 0.03162 µM) | relative viability (Masitinib; 0.1 µM) | relative viability (Masitinib; 0.3162 µM) | relative viability (Masitinib; 1 µM) | relative viability ([1]; 0.08 µM) | relative viability ([1]; 0.253 µM) | relative viability ([1]; 0.8 µM) | relative viability ([1]; 2.53 µM) | relative viability ([1]; 8 µM) | relative viability (Masitinib + Pemetrexed; first compound 0.01 µM) | relative viability (Masitinib + Pemetrexed; first compound 0.03162 µM) | relative viability (Masitinib + Pemetrexed; first compound 0.1 µM) | relative viability (Masitinib + Pemetrexed; first compound 0.3162 µM) | relative viability (Masitinib + Pemetrexed; first compound 1 µM) | relative viability ([2]; first compound 0.08 µM) | relative viability ([2]; first compound 0.253 µM) | relative viability ([2]; first compound 0.8 µM) | relative viability ([2]; first compound 2.53 µM) | relative viability ([2]; first compound 8 µM) |
| --- | --- | --- | --- | --- | --- | --- | --- | --- | --- | --- | --- | --- | --- | --- | --- | --- | --- | --- | --- | --- |
| 201T | 0.79 | 1.03 | 0.825 | 0.783 | 0.976 | 0.939 | 0.959 | 0.959 | 0.74 | 0.712 | 0.309 | 0.343 | 0.319 | 0.347 | 0.345 | 0.501 | 0.438 | 0.522 | 0.494 | 0.536 |
| A549 | 0.906 | 0.953 | 1.09 | 1.03 | 0.856 | 0.888 | 0.871 | 0.943 | 0.929 | 0.921 | – | – | – | – | – | – | – | – | – | – |
| A-427 | – | 0.951 | 0.69 | 1.08 | 0.931 | 0.864 | 0.951 | 0.968 | 0.859 | 0.878 | 0.758 | 0.986 | 0.857 | 1.03 | 0.771 | 0.378 | 0.522 | 0.523 | 0.397 | 0.48 |
| ABC-1 | 0.857 | 0.902 | 1.08 | 0.853 | 0.93 | 0.795 | 0.786 | 1.08 | 0.786 | 0.41 | – | – | – | – | – | 0.369 | 0.427 | 0.493 | 0.421 | 0.319 |
| BEN | 1.06 | 0.845 | 1.16 | 0.953 | 0.975 | 0.928 | 0.95 | 0.913 | 0.897 | 1.03 | 0.886 | 0.713 | 0.897 | 0.704 | 0.777 | 0.304 | 0.281 | 0.295 | 0.304 | 0.322 |
| CAL-12T | 0.922 | 0.953 | 0.99 | 0.97 | 0.967 | 0.867 | 0.928 | 1.06 | 0.854 | 0.911 | 1.11 | 1.15 | 1.29 | 1.4 | 1.28 | 0.45 | 0.546 | 0.542 | 0.469 | 0.528 |
| COR-L23 | 1.02 | 0.969 | 1.06 | 0.984 | 0.981 | 0.981 | 0.986 | 0.926 | 0.877 | 0.989 | 0.214 | 0.227 | 0.194 | 0.205 | 0.196 | 0.587 | 0.66 | 0.555 | 0.64 | 0.503 |
| COR-L 105 | 0.944 | 0.894 | 0.976 | 0.856 | 0.897 | 0.742 | 0.901 | 0.818 | 0.776 | 0.667 | 1.04 | 1.09 | 1.1 | 0.989 | 0.997 | 0.562 | 0.62 | 0.561 | 0.597 | 0.581 |
| Calu-6 | 0.98 | 1.04 | 1.06 | 0.977 | 0.985 | 0.894 | 0.936 | 0.873 | 0.943 | 0.87 | – | – | – | – | – | – | – | – | – | – |
| ChaGo-K-1 | 1.17 | 0.988 | 1.12 | 1.1 | 0.984 | 0.997 | 1.01 | 0.973 | 1.03 | 0.814 | 0.251 | 0.274 | 0.258 | 0.248 | 0.251 | 0.43 | 0.459 | 0.588 | 0.394 | 0.485 |
| EBC-1 | 0.988 | 0.946 | 1.2 | 0.984 | 0.834 | 0.788 | 0.882 | 0.865 | 0.823 | 0.685 | – | – | – | – | – | – | – | – | – | – |
| EKVX | 0.627 | 0.86 | 0.805 | 0.717 | 0.927 | 0.884 | 0.933 | 0.795 | 0.89 | 0.82 | 0.375 | 0.511 | 0.466 | – | 0.35 | 0.538 | 0.699 | 0.619 | 0.628 | 0.636 |
| EMC-BAC-2 | 0.78 | 0.784 | 0.893 | 0.937 | 0.927 | 0.834 | 0.712 | 1.01 | 0.838 | 0.885 | 0.435 | 0.453 | 0.447 | 0.429 | 0.328 | 0.356 | 0.383 | 0.385 | 0.375 | 0.378 |
| EPLC-272H | 0.887 | 0.788 | 0.962 | 0.866 | 0.815 | 0.856 | 0.793 | 0.813 | 0.732 | 0.958 | 0.32 | – | 0.348 | 0.399 | 0.249 | 0.243 | 0.274 | 0.258 | 0.27 | 0.281 |
| H3255 | 0.743 | 0.986 | 0.766 | 0.784 | 0.906 | 0.916 | 0.931 | 0.984 | 0.934 | 0.903 | 0.57 | 0.59 | 0.583 | 0.54 | 0.573 | 0.527 | 0.615 | 0.726 | 0.494 | 0.701 |
| HARA | 0.844 | 0.874 | 0.772 | 0.742 | 0.909 | 0.741 | 0.975 | 0.815 | 0.685 | 0.735 | 0.217 | 0.324 | 0.24 | – | 0.279 | 0.33 | 0.496 | 0.328 | 0.48 | 0.473 |
| HCC-15 | 0.774 | 0.983 | 0.836 | 0.962 | 0.959 | 0.916 | 0.936 | 1.02 | 0.915 | 0.807 | 0.226 | 0.24 | 0.212 | 0.203 | 0.226 | 0.533 | 0.607 | 0.661 | 0.595 | 0.561 |
| HCC-44 | 0.816 | 1.01 | 0.978 | 0.871 | 0.961 | 0.862 | 0.795 | 0.843 | 0.797 | 0.859 | 0.494 | 0.657 | 0.49 | 0.617 | 0.578 | 0.321 | 0.374 | 0.558 | 0.432 | 0.348 |
